Measurements as given in ChEMBL document CHEMBL3585267, “Bioactivity of surface tethered Osteogenic Growth Peptide motifs” (2014).
Active and inactive are the calls of the source. The rule behind the calls is not given here. Peptide text beside a SMILES is read from it.

What was measured:
Mesenchymal stem cell [1] = assay: Effect on cell proliferation of rabbit mesenchymal stem cells incubated for 7 days by MTT assay; type: functional; details: Oryctolagus cuniculus
Mesenchymal stem cell [2] = assay: Induction of osteogenesis of rabbit mesenchymal stem cells by alkaline phosphatase assay; type: functional; details: Oryctolagus cuniculus
Mesenchymal stem cell [3] = assay: Increase in cell proliferation of rabbit mesenchymal stem cells incubated for 14 days by MTT assay; type: functional; details: Oryctolagus cuniculus
Mesenchymal stem cell [4] = assay: Increase in SPARC mRNA expression in rabbit mesenchymal stem cells incubated for 7 days by qRT-PCR method relative to untreated control; type: functional; details: Oryctolagus cuniculus
Mesenchymal stem cell [5] = assay: (§1) Increase in BMP2 mRNA expression in rabbit mesenchymal stem cells incubated for 7 days by qRT-PCR method relative to untreated control; type: functional; details: Oryctolagus cuniculus
Mesenchymal stem cell [6] = assay: Effect on cell proliferation of rabbit mesenchymal stem cells incubated for 3 days by MTT assay; type: functional; details: Oryctolagus cuniculus
Mesenchymal stem cell [7] = assay: Effect on cell morphology of rabbit mesenchymal stem cells incubated for 3 days by phalloidin immunofluorescence staining method; type: functional; details: Oryctolagus cuniculus
Mesenchymal stem cell [8] = assay: Effect on cell morphology of rabbit mesenchymal stem cells incubated for 7 days by H and E staining method; type: functional; details: Oryctolagus cuniculus
Mesenchymal stem cell [9] = assay: (§2) Increase in RUNX2 mRNA expression in rabbit mesenchymal stem cells incubated for 7 days by qRT-PCR method relative to untreated control; type: functional; details: Oryctolagus cuniculus
Mesenchymal stem cell [10] = assay: (§3) Increase in BMP2 mRNA expression in rabbit mesenchymal stem cells incubated for 14 days by qRT-PCR method relative to untreated control; type: functional; details: Oryctolagus cuniculus
Mesenchymal stem cell [11] = assay: (§4) Increase in RUNX2 mRNA expression in rabbit mesenchymal stem cells incubated for 14 days by qRT-PCR method relative to untreated control; type: functional; details: Oryctolagus cuniculus
[12] = as §1; type: functional, Oryctolagus cuniculus, Mesenchymal stem cell
[13] = Reduction in cell proliferation of rabbit mesenchymal stem cells incubated for 7 days by MTT assay; type: functional; details: Oryctolagus cuniculus
[14] = Reduction in cell proliferation of rabbit mesenchymal stem cells incubated for 5 days by MTT assay; type: functional; details: Oryctolagus cuniculus
[15] = Increase in SPARC mRNA expression in rabbit mesenchymal stem cells incubated for 14 days by qRT-PCR method relative to untreated control; type: functional, Oryctolagus cuniculus, Mesenchymal stem cell
[16] = Reduction in cell proliferation of rabbit mesenchymal stem cells incubated for 14 days by MTT assay; type: functional; details: Oryctolagus cuniculus
[17] = as §2; type: functional, Oryctolagus cuniculus, Mesenchymal stem cell
[18] = as §3; type: functional, Oryctolagus cuniculus, Mesenchymal stem cell
[19] = as §4; type: functional, Oryctolagus cuniculus, Mesenchymal stem cell

| Structure (SMILES) | Activity (Mesenchymal stem cell [1]) | Activity (Mesenchymal stem cell [2]) | Activity (Mesenchymal stem cell [4]) | Activity (Mesenchymal stem cell [6]) | Activity (Mesenchymal stem cell [7]) | Activity (Mesenchymal stem cell [8]) | other results |
| --- | --- | --- | --- | --- | --- | --- | --- |
| CC(C)C[C@H](NC(=O)[C@@H](NC(=O)[C@H](CCCNC(=N)N)NC(=O)CNC(=O)[C@H](CCC(N)=O)NC(=O)[C@H](CCCNC(=N)N)NC(=O)[C@H](CCCCN)NC(=O)[C@H](CC(C)C)NC(=O)[C@H](C)N)[C@@H](C)O)C(=O)O (H-ALKRQGRTL-OH) | inactive | inactive |  |  |  |  |  |
| N[C@@H](Cc1ccc(O)cc1)C(=O)NCC(=O)N[C@@H](Cc1ccccc1)C(=O)NCC(=O)NCC(=O)O (H-YGFGG-OH) | inactive | inactive | inactive | inactive | inactive | inactive | Activity (Mesenchymal stem cell [3]): Active; Activity (Mesenchymal stem cell [5]): inactive; Activity (Mesenchymal stem cell [9]): inactive; Activity (Mesenchymal stem cell [10]): inactive; Activity (Mesenchymal stem cell [11]): inactive |
| CC(C)C[C@H](NC(=O)[C@@H](NC(=O)[C@H](CCCNC(=N)N)NC(=O)CNC(=O)[C@H](CCC(N)=O)NC(=O)[C@H](CCCNC(=N)N)NC(=O)[C@H](CCCCN)NC(=O)[C@H](CC(C)C)NC(=O)[C@H](C)NC(=O)[C@@H](N)CS)[C@@H](C)O)C(=O)O (H-CALKRQGRTL-OH) | inactive | inactive |  |  |  |  |  |
| N[C@@H](CS)C(=O)N[C@@H](Cc1ccc(O)cc1)C(=O)NCC(=O)N[C@@H](Cc1ccccc1)C(=O)NCC(=O)NCC(=O)O (H-CYGFGG-OH) |  | Active | inactive | inactive | inactive | inactive | fold change (FC) [12]: 49; Activity [13]: Active; Activity [14]: Active; fold change (FC) [15]: 1.6; Activity [16]: Active; fold change (FC) [17]: 2.6; fold change (FC) [18]: 60; fold change (FC) [19]: 1.7 |
| N[C@@H](Cc1ccc(O)cc1)C(=O)NCC(=O)N[C@@H](Cc1ccccc1)C(=O)NCC(=O)NCC(=O)N[C@@H](CS)C(=O)O (H-YGFGGC-OH) | inactive | inactive |  |  |  |  |  |
| CC(C)C[C@H](NC(=O)[C@H](C)N)C(=O)N[C@@H](CCCCN)C(=O)N[C@@H](CCCNC(=N)N)C(=O)N[C@@H](CCC(N)=O)C(=O)NCC(=O)N[C@@H](CCCNC(=N)N)C(=O)N[C@H](C(=O)N[C@@H](CC(C)C)C(=O)N[C@@H](CS)C(=O)O)[C@@H](C)O (H-ALKRQGRTLC-OH) | inactive | inactive |  |  |  |  |  |
